Results taken from US20250084043A1, “FORMULATION OF METAXALONE” (iCeutica Inc., priority 2013, published 2025).
Where two headings read alike, the source gives them in different places.

Experiments:
[1] = cited from earlier work
[2] = Particle size distribution, Malvern Mastersizer 3000 laser particle size analyzer; assay type: physicochemical; conditions: aqueous dispersing medium
Experimental: Submicron sized metaxalone drug particles were prepared by dry milling metaxalone drug substance (40%) together with lactose monohydrate and sodium lauryl sulfate in an attritor mill containing stainless steel grinding media. The total batch size was approximately 1 kg. Milled powder was discharged out the bottom of the mill and collected for analysis and further processing. […] Table 1, below, includes size data for the milled and unmilled metaxalone.

- D[4, 3] [2]: 47.3 μm
- Dv10 [2]: 16.0 μm
- Dv50 [2]: 43.3 μm
- Dv90 [2]: 81.8 μm
- Specific Surface Area [2]: 199.7 m^2/kg
SMILES: Cc1cc(C)cc(OCC2CNC(=O)O2)c1 (stereo not shown) [Metaxalone]
- solubility ([1]; 96% ethanol): soluble
- solubility ([1]; chloroform): freely soluble
- solubility ([1]; ether): practically insoluble
- solubility ([1]; methanol): soluble
- solubility ([1]; water): practically insoluble
